Results as given in PubChem BioAssay AID504457 (Sanford-Burnham Center for Chemical Genomics, 2011).
The source made the active and inactive calls.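 The calls were made as follows: active = compounds with IC50 below 20 µM; inactive = the rest.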

molecular target: Type-1 angiotensin II receptor (Homo sapiens) (UniProt P30556); experiment: antagonism of AGTR1 beta-arrestin recruitment – cell-based, CHO-K1 AGTR1, luminescence, set 5, selectivity assay for APJ receptor antagonist project, SAR follow-up (AID 504457); details: CHO-K1 AGTR1 PathHunter beta-arrestin
Sequence (P30556 whole entry, looked up): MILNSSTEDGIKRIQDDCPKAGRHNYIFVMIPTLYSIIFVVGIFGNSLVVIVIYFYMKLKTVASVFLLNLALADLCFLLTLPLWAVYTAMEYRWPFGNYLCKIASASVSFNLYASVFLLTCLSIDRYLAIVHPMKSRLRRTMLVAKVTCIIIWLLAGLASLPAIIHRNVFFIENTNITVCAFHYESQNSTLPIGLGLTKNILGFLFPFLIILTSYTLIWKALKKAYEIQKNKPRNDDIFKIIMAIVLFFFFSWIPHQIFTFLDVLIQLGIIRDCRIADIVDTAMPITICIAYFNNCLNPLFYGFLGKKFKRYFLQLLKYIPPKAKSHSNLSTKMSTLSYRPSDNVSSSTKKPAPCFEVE

SMILES	IC50
COc1cc(CSc2nc(C)cc(C)n2)ccc1O	> 79 µM (inactive)
C=CCOc1ccc(CSc2nccc(C)n2)cc1	> 79 µM (inactive)
N#Cc1ccc(C(=O)Oc2coc(CSc3ncccn3)cc2=O)cc1	> 79 µM (inactive)
Cc1ccnc(SCc2cc(=O)c(OC(=O)c3ccccc3)co2)n1	> 79 µM (inactive)
CC(=O)Oc1cc2c(cc1Cl)C(c1ccccc1Cl)CC1(CC(C)(C)NC(=S)N1)O2 (centres undefined)	> 79 µM (inactive)
Cc1cc(C)nc(SCc2cc(=O)c(O)co2)n1	> 79 µM (inactive)
COc1ccccc1NC(=O)CN1C(=O)C(=O)c2ccccc21	> 79 µM (inactive)
Cc1ccnc(SCc2cc(=O)c(OC(=O)c3ccc(C#N)cc3)co2)n1	> 79 µM (inactive)
Cc1cc(C)nc(SCc2cc(=O)c(OC(=O)c3cc([N+](=O)[O-])ccc3Cl)co2)n1	inactive
C=CCOc1ccc(COc2ccccc2)cc1	> 79 µM (inactive)
O=c1cc(CSc2ncccn2)occ1O	> 79 µM (inactive)
O=C(Oc1coc(CSc2ncccn2)cc1=O)c1ccc(Br)cc1	> 79 µM (inactive)
CC1(C)CC2(CC(c3ccc(F)cc3)c3ccc(O)cc3O2)NC(=S)N1 (centres undefined)	inactive
COc1ccc(C2CC3(CC(C)(C)NC(=S)N3)Oc3cc(O)cc(C)c32)cc1 (centres undefined)	> 79 µM (inactive)
Cc1ccnc(SCc2cc(=O)c(OC(=O)c3ccc([N+](=O)[O-])cc3)co2)n1	> 79 µM (inactive)
C=CCOc1ccc(CSc2nc(C)cc(C)n2)cc1OC	> 79 µM (inactive)
COc1ccc(C2CC3(CC(C)(C)NC(=S)N3)Oc3cc(OC(C)=O)cc(C)c32)cc1 (centres undefined)	> 79 µM (inactive)
Cc1ccccc1C1CC2(CC(C)(C)NC(=S)N2)Oc2cc(O)c(Cl)cc21 (centres undefined)	inactive
Cc1ccc(C(=O)Oc2coc(CSc3ncccn3)cc2=O)cc1[N+](=O)[O-]	> 79 µM (inactive)
